{"source": "patent US9011933B2", "about": "“Therapeutic methods and pharmaceutical compositions for treating warts with tellurium compounds” (Biomas Ltd., priority 2004, dated 2015)", "origin": "cited, not measured here", "key": {"[1]": {"conditions": "rats; intravenous and intramuscular dosage"}, "human viruses": {"tested_on": "human viruses", "conditions": "studies conducted heretofore"}}, "note": "Like-named read-outs stand apart in the source and are kept apart here."}
{"compound": "O=C(O)c1ccccc1O", "note": "[salicylic acid]", "values": [{"measurement": "cure rate", "setting": "warts; topical standard treatment, after 4 weeks, at best", "value": "≤ 40", "unit": "%"}]}
{"compound": "Cl[TeH]1(Cl)(Cl)OCCO1", "note": "[AS101, ammonium trichloro(dioxyethylene-O,O′)tellurate]", "values": [{"measurement": "LD50 relative to the immunology effective dose", "setting": "[1]", "value": "500-1000 folds"}, {"measurement": "efficacy as an anti-viral agent against human viruses", "setting": "human viruses", "value": "insufficient"}]}
{"compound": "O=C(O)C(Cl)(Cl)Cl", "note": "[trichloro acetic acid]", "values": [{"measurement": "cure rate", "setting": "warts; typical result of treatment", "value": "64-81%"}]}
{"compound": "N#N", "note": "[liquid nitrogen]", "values": [{"measurement": "patients remaining clear of warts", "setting": "warts; after a median of 19 months", "value": 57, "unit": "%"}, {"measurement": "initial cure, patients", "setting": "warts; liquid nitrogen treatment of warts", "value": "52-83%"}]}
{"compound": "bleomycine", "values": [{"measurement": "success rate", "setting": "warts; intralesional therapy", "value": "~70", "unit": "%"}]}
